# Species: Rattus norvegicus
# Experiment: DrugMatrix - Regimen: Daily Repeat
# Assay type: toxicity, organism-based, Sprague-Dawley
# Design: regimen Daily Repeat, gender Male, age 6-8 weeks
# Details: in vivo, po, route oral GAVAGE, vehicle 100 % SALINE; for ABSOLUTE BASOPHIL / ABSOLUTE EOSINOPHIL / ABSOLUTE LYMPHOCYTE / ABSOLUTE MONOCYTE / ABSOLUTE SEGMENTED NEUTROPHIL / BASOPHIL / EOSINOPHIL / ERYTHROCYTE COUNT / HEMATOCRIT / HEMOGLOBIN / LEUKOCYTE COUNT / LYMPHOCYTE / MEAN CORPUSCULAR HEMOGLOBIN / MEAN CORPUSCULAR HEMOGLOBIN CONCENTRATION / MEAN CORPUSCULAR VOLUME / MONOCYTE / NEUTROPHIL / NUCLEATED RED BLOOD CELLS / PLATELET COUNT: tissue Blood; for ALANINE AMINOTRANSFERASE / ALBUMIN / ALKALINE PHOSPHATASE / ASPARTATE AMINOTRANSFERASE / BLOOD UREA NITROGEN / CARBON DIOXIDE / CHLORIDE / CHOLESTEROL / CREATINE PHOSPHOKINASE / CREATININE / GLUCOSE / LACTATE DEHYDROGENASE / LIPASE / PHOSPHORUS / POTASSIUM / SODIUM / TOTAL BILIRUBIN / TOTAL PROTEIN / URIC ACID: tissue Plasma
# [1] = 11 mg/kg, 120 h, dose level High, time 5 day
# [2] = […], 72 h, dose 2.8 mg/Kg, dose level Low, time 3 day
# [3] = […], 120 h, dose 2.8 mg/Kg, dose level Low, time 5 day
smiles,measurement,setting,value
Cc1cc(CC(=O)O)n(C)c1C(=O)c1ccc(Cl)cc1 [ZOMEPIRAC],ABSOLUTE BASOPHIL,[1],0 CELLS/uL
same,ABSOLUTE EOSINOPHIL,[1],95 CELLS/uL
same,ABSOLUTE LYMPHOCYTE,[1],12621.33 CELLS/uL
same,ABSOLUTE MONOCYTE,[1],94.67 CELLS/uL
same,ABSOLUTE SEGMENTED NEUTROPHIL,[1],855.67 CELLS/uL
same,BASOPHIL,[1],0%
same,EOSINOPHIL,[1],0.67%
same,ERYTHROCYTE COUNT,[1],5.5 x10E6/uL
same,HEMATOCRIT,[1],34.03%
same,HEMOGLOBIN,[1],13.2 G/DL
same,LEUKOCYTE COUNT,[1],13.67 x10E3/uL
same,LYMPHOCYTE,[1],92.33%
same,MEAN CORPUSCULAR HEMOGLOBIN,[1],24.13 pg
same,MEAN CORPUSCULAR HEMOGLOBIN CONCENTRATION,[1],38.87 G/DL
same,MEAN CORPUSCULAR VOLUME,[1],62.1 fL
same,MONOCYTE,[1],0.67%
same,NEUTROPHIL,[1],6.33%
same,NUCLEATED RED BLOOD CELLS,[1],0 /100WBC
same,PLATELET COUNT,[1],1240 x10E3/uL
same,ALANINE AMINOTRANSFERASE,[1],49.33 u/L
same,ALBUMIN,[1],3.77 G/DL
same,ALKALINE PHOSPHATASE,[1],252.67 u/L
same,ASPARTATE AMINOTRANSFERASE,[1],97.67 u/L
same,BLOOD UREA NITROGEN,[1],15.67 mg/dL
same,CARBON DIOXIDE,[1],24 mmol/L
same,CHLORIDE,[1],105.33 MEQ/L
same,CHOLESTEROL,[1],76.67 mg/dL
same,CREATINE PHOSPHOKINASE,[1],395.67 u/L
same,CREATININE,[1],0.17 mg/dL
same,GLUCOSE,[1],143.33 mg/dL
same,LACTATE DEHYDROGENASE,[1],595 u/L
same,LIPASE,[1],8.67 u/L
same,PHOSPHORUS,[1],11.83 mg/dL
same,POTASSIUM,[1],6.93 MEQ/L
same,SODIUM,[1],148.57 MEQ/L
same,TOTAL BILIRUBIN,[1],0.13 mg/dL
same,TOTAL PROTEIN,[1],5.87 G/DL
same,URIC ACID,[1],2.33 mg/dL
same,ABSOLUTE BASOPHIL,[2],0 CELLS/uL
same,ABSOLUTE EOSINOPHIL,[2],111.67 CELLS/uL
same,ABSOLUTE LYMPHOCYTE,[2],15209 CELLS/uL
same,ABSOLUTE MONOCYTE,[2],151.67 CELLS/uL
same,ABSOLUTE SEGMENTED NEUTROPHIL,[2],1061 CELLS/uL
same,BASOPHIL,[2],0%
same,EOSINOPHIL,[2],0.67%
same,ERYTHROCYTE COUNT,[2],5.59 x10E6/uL
same,HEMATOCRIT,[2],34.1%
same,HEMOGLOBIN,[2],13.53 G/DL
same,LEUKOCYTE COUNT,[2],16.53 x10E3/uL
same,LYMPHOCYTE,[2],91.33%
same,MEAN CORPUSCULAR HEMOGLOBIN,[2],24.2 pg
same,MEAN CORPUSCULAR HEMOGLOBIN CONCENTRATION,[2],39.7 G/DL
same,MEAN CORPUSCULAR VOLUME,[2],60.97 fL
same,MONOCYTE,[2],1%
same,NEUTROPHIL,[2],7%
same,NUCLEATED RED BLOOD CELLS,[2],0 /100WBC
same,PLATELET COUNT,[2],1145.33 x10E3/uL
same,ALANINE AMINOTRANSFERASE,[2],50.67 u/L
same,ALBUMIN,[2],4 G/DL
same,ALKALINE PHOSPHATASE,[2],259 u/L
same,ASPARTATE AMINOTRANSFERASE,[2],76.67 u/L
same,BLOOD UREA NITROGEN,[2],14.67 mg/dL
same,CARBON DIOXIDE,[2],23 mmol/L
same,CHLORIDE,[2],102 MEQ/L
same,CHOLESTEROL,[2],65.33 mg/dL
same,CREATINE PHOSPHOKINASE,[2],362.33 u/L
same,CREATININE,[2],0.2 mg/dL
same,GLUCOSE,[2],180 mg/dL
same,LACTATE DEHYDROGENASE,[2],137 u/L
same,LIPASE,[2],12.33 u/L
same,PHOSPHORUS,[2],13.07 mg/dL
same,POTASSIUM,[2],6.11 MEQ/L
same,SODIUM,[2],141.93 MEQ/L
same,TOTAL BILIRUBIN,[2],0.2 mg/dL
same,TOTAL PROTEIN,[2],5.77 G/DL
same,URIC ACID,[2],1.6 mg/dL
same,ABSOLUTE BASOPHIL,[3],0 CELLS/uL
same,ABSOLUTE EOSINOPHIL,[3],70.67 CELLS/uL
same,ABSOLUTE LYMPHOCYTE,[3],13627.67 CELLS/uL
same,ABSOLUTE MONOCYTE,[3],0 CELLS/uL
same,ABSOLUTE SEGMENTED NEUTROPHIL,[3],1235 CELLS/uL
same,BASOPHIL,[3],0%
same,EOSINOPHIL,[3],0.33%
same,ERYTHROCYTE COUNT,[3],5.81 x10E6/uL
same,HEMATOCRIT,[3],35.67%
same,HEMOGLOBIN,[3],14.07 G/DL
same,LEUKOCYTE COUNT,[3],14.93 x10E3/uL
same,LYMPHOCYTE,[3],91.33%
same,MEAN CORPUSCULAR HEMOGLOBIN,[3],24.23 pg
same,MEAN CORPUSCULAR HEMOGLOBIN CONCENTRATION,[3],39.47 G/DL
same,MEAN CORPUSCULAR VOLUME,[3],61.53 fL
same,MONOCYTE,[3],0%
same,NEUTROPHIL,[3],8.33%
same,NUCLEATED RED BLOOD CELLS,[3],0 /100WBC
same,PLATELET COUNT,[3],1274.67 x10E3/uL
same,ALANINE AMINOTRANSFERASE,[3],59.33 u/L
same,ALBUMIN,[3],4.17 G/DL
same,ALKALINE PHOSPHATASE,[3],331 u/L
same,ASPARTATE AMINOTRANSFERASE,[3],103.33 u/L
same,BLOOD UREA NITROGEN,[3],16.33 mg/dL
same,CARBON DIOXIDE,[3],22.67 mmol/L
same,CHLORIDE,[3],104.67 MEQ/L
same,CHOLESTEROL,[3],64.33 mg/dL
same,CREATINE PHOSPHOKINASE,[3],532.33 u/L
same,CREATININE,[3],0.2 mg/dL
same,GLUCOSE,[3],159.67 mg/dL
same,LACTATE DEHYDROGENASE,[3],749.67 u/L
same,LIPASE,[3],10 u/L
same,PHOSPHORUS,[3],12.53 mg/dL
same,POTASSIUM,[3],6.9 MEQ/L
same,SODIUM,[3],147.37 MEQ/L
same,TOTAL BILIRUBIN,[3],0.2 mg/dL
same,TOTAL PROTEIN,[3],6.2 G/DL
same,URIC ACID,[3],2 mg/dL

# From ChEMBL document CHEMBL3885881, “DrugMatrix”
